Measurements reported in patent publication US6737383B1, “Herbicidal oxadiazolidines” (priority 1999, dated 2004).

Legend:
morningglory = assay: Test B pre/postemergence morningglory; format: in vivo, Ipomoea hederacea
Procedure, shortened: (§1)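 Herbicidal effect was estimated by eye on a ten-point control scale after plants spent twelve to sixteen days in a greenhouse following soil or foliar treatment. Foliar sprays targeted plants at one to four leaves; all doses were formulated in a non-phytotoxic solvent with surfactant.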

surinam grass = assay: Test B pre/postemergence surinam grass; format: in vivo, Brachiaria decumbens
Procedure, shortened: as §1

bamyardgrass = assay: Test B flood test barnyardgrass; format: in vivo, Echinochloa crus-galli
Method: (§2) At the same time, these crop and weed species were also treated with postemergence applications of test chemicals formulated in the same manner. Plants ranged in height from 2 to 18 cm (1- to 4-leaf stage) for postemergence treatments. Plant species in the flood test consisted of rice (Oryza sativa), smallflower flatsedge (Cyperus difformis), duck salad (Heteranthera limosa) and bamyardgrass (Echinochloa crus-galli) grown to the 2-leaf stage for testing. Treated plants and controls were maintained in a greenhouse for twelve to sixteen days, after which all species were compared to controls and visually evaluated. Plant response ratings, summarized in Table B, are based on a scale of 0 to 10 where 0 is no effect and 10 is complete control. A dash (−) response means no test result.

smallflower flatsedge = assay: Test B flood test smallflower flatsedge; format: in vivo, Cyperus difformis
Method: as §2

soybean = assay: Test B pre/postemergence soybean; format: in vivo, Glycine max
Procedure, shortened: as §1

wheat = assay: Test B pre/postemergence wheat; format: in vivo, Triticum aestivum
Procedure, shortened: as §1

duck salad = assay: Test B flood test duck salad; format: in vivo, Heteranthera limosa
Method: as §2

purple nutsedge = assay: Test B pre/postemergence purple nutsedge; format: in vivo, Cyperus rotundus
Procedure, shortened: as §1

cocklebur = assay: Test B pre/postemergence cocklebur; format: in vivo, Xanthium strumarium
Procedure, shortened: as §1

pigweed = assay: Test B pre/postemergence pigweed; format: in vivo, Amaranthus retroflexus
Procedure, shortened: as §1

rape = assay: Test B pre/postemergence rape; format: in vivo, Brassica napus
Procedure, shortened: as §1

wild oat = assay: Test B pre/postemergence wild oat; format: in vivo, Avena fatua
Procedure, shortened: as §1

giant foxtail = assay: Test B pre/postemergence giant foxtail; format: in vivo, Setaria faberii
Procedure, shortened: as §1

corn = assay: Test B pre/postemergence corn; format: in vivo, Zea mays
Procedure, shortened: as §1

bedstraw = assay: Test B pre/postemergence bedstraw; format: in vivo, Galium aparine
Procedure, shortened: as §1

velvetleaf = assay: Test B pre/postemergence velvetleaf; format: in vivo, Abutilon theophrasti
Procedure, shortened: as §1

sugar beet = assay: Test B pre/postemergence sugar beet; format: in vivo, Beta vulgaris
Procedure, shortened: as §1

blackgrass = assay: Test B pre/postemergence blackgrass; format: in vivo, Alopecurus myosuroides
Procedure, shortened: as §1

crabgrass = assay: Test B pre/postemergence crabgrass; format: in vivo, Digitaria sanguinalis
Procedure, shortened: as §1

[1] = Postemergence, Rate 62 g/ha, scale of 0 to 10, 0 is no effect, 10 is complete control
[2] = Postemergence, Rate 125 g/ha, scale 0 to 10, 0 is no effect, 10 is complete control
[3] = Postemergence, Rate 500 g/ha, scale 0 to 10, 0 is no effect, 10 is complete control
[4] = Preemergence, Rate 62 g/ha, scale of 0 to 10 where 0 is no effect and 10 is complete control
[5] = Preemergence, Rate 125 g/ha, scale 0 to 10, 0 is no effect, 10 is complete control
[6] = Preemergence, Rate 500 g/ha, scale of 0 to 10 where 0 is no effect and 10 is complete control
[7] = Rate 250 g/ha, Postemergence, scale of 0 to 10 where 0 is no effect and 10 is complete control
[8] = Rate 62 g/ha, flood test species, Pre-emergence, visual evaluation after twelve to sixteen days
[9] = Rate 125 g/ha, under heading Pre-emergence, flood test species, visual evaluation after twelve to sixteen days
[10] = Rate 250 g/ha, Pre-emergence (flood test species), scale 0 to 10, 0 is no effect, 10 is complete control
[11] = Rate 500 g/ha, Pre-emergence section of Table B, 0 to 10 scale (0 no effect, 10 complete control)

CCCCCn1c(=O)on(C(=O)N(c2ccc(Cl)cc2)C(C)C)c1=O [Compound 528]
Morningglory plant response rating (morningglory; [1]): 2
Morningglory plant response rating (morningglory; [2]): 3
Plant response rating, Morningglory (morningglory; [3]): 5
Plant response rating, Morningglory (morningglory; [4]): 0
Morningglory plant response rating (morningglory; [5]): 0
Morningglory plant response rating (0 to 10 scale) (morningglory; Preemergence, Rate 250 g/ha): 0
Morningglory plant response rating (morningglory; [6]): 3
Plant response rating, Morningglory (morningglory; [7]): 5
B. signalgrass plant response rating (surinam grass; [1]): 0
B. signalgrass plant response rating (surinam grass; [2]): 0
Plant response rating, B. signalgrass (surinam grass; [3]): 0
Plant response rating, B. signalgrass (surinam grass; [4]): 0
B. signalgrass plant response rating (surinam grass; [5]): 0
B. signalgrass plant response rating (0 to 10 scale, 0 is no effect, 10 is complete control) (surinam grass; Preemergence, Rate 250 g/ha): 0
Plant response rating, B. signalgrass (surinam grass; [7]): 0
Plant response rating, Barnyardgrass (0 to 10 scale, 0 is no effect, 10 is complete control) (bamyardgrass; [8]): 0
Barnyardgrass plant response rating (0 to 10 scale, 0 is no effect, 10 is complete control) (bamyardgrass; [9]): 0
Barnyardgrass plant response rating (bamyardgrass; [10]): 0
Barnyardgrass plant response rating (bamyardgrass; [11]): 0
Plant response rating, S. Flatsedge (0 to 10 scale, 0 is no effect, 10 is complete control) (smallflower flatsedge; [8]): 0
S. Flatsedge plant response rating (0 to 10 scale, 0 is no effect, 10 is complete control) (smallflower flatsedge; [9]): 0
S. Flatsedge plant response rating (smallflower flatsedge; [10]): 0
S. Flatsedge plant response rating (smallflower flatsedge; [11]): 0
Soybean plant response rating (soybean; [1]): 3
Soybean plant response rating (soybean; [2]): 3
Plant response rating, Soybean (soybean; [3]): 5
Plant response rating, Soybean (soybean; [4]): 0
Soybean plant response rating (soybean; [5]): 0
Soybean plant response rating (0 to 10 scale) (soybean; Preemergence, Rate 250 g/ha): 0
Soybean plant response rating (soybean; [6]): 0
Plant response rating, Soybean (soybean; [7]): 5
Wheat plant response rating (wheat; [1]): 0
Wheat plant response rating (wheat; [2]): 0
Plant response rating, Wheat (wheat; [3]): 0
Plant response rating, Wheat (wheat; [4]): 0
Wheat plant response rating (wheat; [5]): 0
Wheat plant response rating (0 to 10 scale) (wheat; Preemergence, Rate 250 g/ha): 0
Plant response rating, Wheat (wheat; [7]): 0
Plant response rating, Ducksalad (0 to 10 scale, 0 is no effect, 10 is complete control) (duck salad; [8]): 0
Ducksalad plant response rating (0 to 10 scale, 0 is no effect, 10 is complete control) (duck salad; [9]): 0
Ducksalad plant response rating (duck salad; [10]): 0
Ducksalad plant response rating (duck salad; [11]): 0
Nutsedge plant response rating (purple nutsedge; [2]): 0
Plant response rating, Nutsedge (purple nutsedge; [3]): 6
Plant response rating, Nutsedge (purple nutsedge; [4]): 0
Nutsedge plant response rating (purple nutsedge; [5]): 0
Nutsedge plant response rating (0 to 10 scale) (purple nutsedge; Preemergence, Rate 250 g/ha): 0
Nutsedge plant response rating (purple nutsedge; [6]): 0
Plant response rating, Nutsedge (purple nutsedge; [7]): 0
Cocklebur plant response rating (cocklebur; [1]): 0
Cocklebur plant response rating (cocklebur; [2]): 0
Plant response rating, Cocklebur (cocklebur; [3]): 3
Plant response rating, Cocklebur (cocklebur; [4]): 0
Cocklebur plant response rating (cocklebur; [5]): 0
Cocklebur plant response rating (0 to 10 scale) (cocklebur; Preemergence, Rate 250 g/ha): 0
Cocklebur plant response rating (cocklebur; [6]): 0
Plant response rating, Cocklebur (cocklebur; [7]): 2
Redroot pigweed plant response rating (pigweed; [1]): 0
Redroot pigweed plant response rating (pigweed; [2]): 0
Plant response rating, Redroot pigweed (pigweed; [3]): 0
Plant response rating, Redroot pigweed (pigweed; [4]): 0
Redroot pigweed plant response rating (pigweed; [5]): 0
Redroot pigweed plant response rating (0 to 10 scale) (pigweed; Preemergence, Rate 250 g/ha): 0
Plant response rating, Redroot pigweed (pigweed; [7]): 0
Rape plant response rating (rape; [1]): 0
Rape plant response rating (rape; [2]): 0
Plant response rating, Rape (rape; [3]): 3
Plant response rating, Rape (rape; [4]): 0
Rape plant response rating (rape; [5]): 0
Rape plant response rating (0 to 10 scale) (rape; Preemergence, Rate 250 g/ha): 0
Plant response rating, Rape (rape; [7]): 3
Wild oats plant response rating (wild oat; [1]): 0
Wild oats plant response rating (wild oat; [2]): 0
Plant response rating, Wild oats (wild oat; [3]): 0
Plant response rating, Wild oats (wild oat; [4]): 0
Wild oats plant response rating (wild oat; [5]): 0
Wild oats plant response rating (0 to 10 scale) (wild oat; Preemergence, Rate 250 g/ha): 0
Plant response rating, Wild oats (wild oat; [7]): 0
Giant foxtail plant response rating (giant foxtail; [1]): 0
Giant foxtail plant response rating (giant foxtail; [2]): 3
Plant response rating, Giant foxtail (giant foxtail; [3]): 9
Plant response rating, Giant foxtail (giant foxtail; [4]): 9
Giant foxtail plant response rating (giant foxtail; [5]): 10
Giant foxtail plant response rating (0 to 10 scale) (giant foxtail; Preemergence, Rate 250 g/ha): 10
Giant foxtail plant response rating (giant foxtail; [6]): 10
Plant response rating, Giant foxtail (giant foxtail; [7]): 3
Corn plant response rating (corn; [1]): 0
Corn plant response rating (corn; [2]): 0
Plant response rating, Corn (corn; [3]): 0
Plant response rating, Corn (corn; [4]): 0
Corn plant response rating (corn; [5]): 0
Corn plant response rating (0 to 10 scale) (corn; Preemergence, Rate 250 g/ha): 0
Corn plant response rating (corn; [6]): 0
Plant response rating, Corn (corn; [7]): 0
Bedstraw plant response rating (bedstraw; [1]): 0
Bedstraw plant response rating (bedstraw; [2]): 0
Plant response rating, Bedstraw (bedstraw; [3]): 8
Plant response rating, Bedstraw (bedstraw; [4]): 0
Bedstraw plant response rating (bedstraw; [5]): 0
Bedstraw plant response rating (0 to 10 scale) (bedstraw; Preemergence, Rate 250 g/ha): 0
Plant response rating, Bedstraw (bedstraw; [7]): 0
Velvetleaf plant response rating (velvetleaf; [1]): 0
Velvetleaf plant response rating (velvetleaf; [2]): 4
Plant response rating, Velvetleaf (velvetleaf; [3]): 5
Plant response rating, Velvetleaf (velvetleaf; [4]): 0
Velvetleaf plant response rating (velvetleaf; [5]): 0
Velvetleaf plant response rating (0 to 10 scale) (velvetleaf; Preemergence, Rate 250 g/ha): 0
Velvetleaf plant response rating (velvetleaf; [6]): 0
Plant response rating, Velvetleaf (velvetleaf; [7]): 4
Sugarbeets plant response rating (sugar beet; [1]): 0
Sugarbeets plant response rating (sugar beet; [2]): 0
Plant response rating, Sugarbeets (sugar beet; [3]): 2
Plant response rating, Sugarbeets (sugar beet; [4]): 0
Sugarbeets plant response rating (sugar beet; [5]): 0
Sugarbeets plant response rating (0 to 10 scale) (sugar beet; Preemergence, Rate 250 g/ha): 0
Plant response rating, Sugarbeets (sugar beet; [7]): 0
Blackgrass plant response rating (blackgrass; [1]): 0
Blackgrass plant response rating (blackgrass; [2]): 0
Plant response rating, Blackgrass (blackgrass; [3]): 5
Plant response rating, Blackgrass (blackgrass; [4]): 0
Blackgrass plant response rating (blackgrass; [5]): 0
Blackgrass plant response rating (0 to 10 scale) (blackgrass; Preemergence, Rate 250 g/ha): 0
Plant response rating, Blackgrass (blackgrass; [7]): 0
Crabgrass plant response rating (crabgrass; [1]): 3
Crabgrass plant response rating (crabgrass; [2]): 9
Plant response rating, Crabgrass (crabgrass; [3]): 10
Plant response rating, Crabgrass (crabgrass; [4]): 7
Crabgrass plant response rating (crabgrass; [5]): 9
Crabgrass plant response rating (0 to 10 scale) (crabgrass; Preemergence, Rate 250 g/ha): 10
Crabgrass plant response rating (crabgrass; [6]): 10
Plant response rating, Crabgrass (crabgrass; [7]): 9
